Measurements: paper PMC9693575, “Isopropyl Amino Acid Esters Ionic Liquids as Vehicles for Non-Steroidal Anti-Inflammatory Drugs in Potential Topical Drug Delivery Systems with Antimicrobial Activity” (International Journal of Molecular Sciences, 2022)

Experiments:
Micrococcus Luteus = assay: Disc diffusion antimicrobial susceptibility test, Micrococcus luteus; type: cell-based; set-up: key to Inhibition diameter: -: no growth of the organism; conditions: for zone of inhibition at 600000 µg/mL: solution transferred to disc 600 mg cm^−3; for zone of inhibition at 800000 µg/mL: solution transferred to disc 800 mg cm^−3
[1] = system: Staphylococcus epidermidis; assay: Disc diffusion antimicrobial susceptibility test, Staphylococcus epidermidis; type: cell-based; set-up: key to Inhibition diameter: -: no growth of the organism; conditions: for zone of inhibition at 600000 µg/mL: solution transferred to disc 600 mg cm^−3; for zone of inhibition at 800000 µg/mL: solution transferred to disc 800 mg cm^−3
Method: (§1) The plates were incubated for 24 h at 37 °C.

[2] = n-octanol-water partition coefficient (logP), shake flask method; type: physicochemical; conditions: n-octanol-water, shake flask; read-out: LogP
[3] = Solubility in water and phosphate buffers; conditions: for Solubility in Water, as active substance: deionized water, 25 °C; for Solubility in Water, as active substance / Solubility in Phosphate Buffer pH = 5.4, as active substance / Solubility in Phosphate Buffer pH = 7.4, as active substance: AS = unmodified acid; for Solubility in Phosphate Buffer pH = 5.4, as active substance: pH 5.4, 25 °C; for Solubility in Phosphate Buffer pH = 7.4, as active substance: pH 7.4, 25 °C
Description: This study aims to compare the influence of amino acid structure on the physicochemical properties of NSAID salts with the isopropyl ester of amino acids.

Escherichia coli = assay: Disc diffusion antimicrobial susceptibility test, Escherichia coli; type: cell-based; set-up: key to Inhibition diameter: -: no growth of the organism; conditions: for zone of inhibition at 200000 µg/mL: solution transferred to disc 200 mg cm^−3; for zone of inhibition at 400000 µg/mL: solution transferred to disc 400 mg cm^−3; for zone of inhibition at 600000 µg/mL: solution transferred to disc 600 mg cm^−3
Method: as §1

[4] = Solubility in organic solvents (modified Vogel's method); conditions: 25 °C
[5] = pKa / pKB by potentiometric acid-base titration and formation constant log(KS); conditions: calculated from pKA of acid and pKB of base
Method: Determination of formation constant pKs
Zabrze, Poland). For the measurement of pKA acids, 0.1 M NaOH was used. In order to
ester hydrochloride, HCl aqueous solution, was added in an amount that allowed reach-
After that, an acid-base titration was made out by adding dropwise 5 mM

[6] = Thermogravimetric analysis (thermal stability); conditions: air atmosphere, 10 °C min−1; for TDTGmax, maximum decomposition temperature: DTG; for TTGonset, the onset of the thermal degradation: TG
Method: The thermal stabilities of the obtained NSAIDs isopropyl ester amino acid salts were investigated. […] The beginning of thermal degradation was evaluated based on the value of onset of the TG curve, which occurs in the first phase of the process. […]
Thermogravimetric analysis (TG)
Thermogravimetric analysis was carried out using Netzsch Proteus Thermal Analy- […]
Samples of 5–8 mg were loaded in Al2O3 […]
ment was performed in an air atmosphere (25 cm3min−1) with nitrogen flow (10 cm3min−1) […]
Differential scanning calorimetry (DSC)
Phase transformation temperatures were determined on a PerkinElmer DSC-7 (Rot-gau, Germany). The samples of 3–5 mg were loaded on the aluminum pan with a crimped lid. Measurements were carried out in a nitrogen atmosphere (20 cm3 min-1). The rate of heating/cooling was 5°C min-1. […]
tained for 30 min inside the furnace, then cooled to 0°C to condition the sample and the crucible. After that, heating was conducted to the specified temperature, followed by cool-ing. Unless otherwise stated, two complete cycles of heating and cooling were performed.
The specified maximum temperature was individual for each compound, determined from TG analysis, and it was at least 10°C lower than the onset decomposition tempera-ture. Temperatures reported from DSC data are curve peaks, the melting points being endothermic upon heating and crystallization point being exothermic upon cooling. Lead, indium, tin, and zinc were used as standards to calibrate the temperature. Indium was used for enthalpy measurement calibration. […]

[7] = Micrococcus luteus, 24 h, read-out: Inhibition diameter
[8] = solution transferred to disc 25 mg cm^−3
[9] = solution transferred to disc 50 mg cm^−3
[10] = solution transferred to disc 100 mg cm^−3
[11] = solution transferred to disc 200 mg cm^−3
[12] = solution transferred to disc 400 mg cm^−3
[13] = Staphylococcus epidermidis, 24 h, read-out: Inhibition diameter
[14] = Escherichia coli, 24 h, read-out: Inhibition diameter

Row | Compound | zone of inhibition at 600000 µg/mL (Micrococcus Luteus; [7]) | zone of inhibition at 800000 µg/mL (Micrococcus Luteus; [7]) | Inhibition diameter (Micrococcus Luteus; [8]) | Inhibition diameter (Micrococcus Luteus; [9]) | zone of inhibition at 600000 µg/mL [1, 13] | zone of inhibition at 800000 µg/mL [1, 13] | Inhibition diameter [1, 8] | Inhibition diameter [1, 9] | Inhibition diameter [1, 10] | logP [2] | Solubility in Water, as active substance [3] | Solubility in Phosphate Buffer pH = 5.4, as active substance [3] | solubility thermodynamic ([3]; pH 5.4, aqueous buffer) | Solubility in Phosphate Buffer pH = 7.4, as active substance [3] | solubility thermodynamic ([3]; pH 7.4, aqueous buffer) | solubility thermodynamic ([3]; water) | zone of inhibition at 200000 µg/mL (Escherichia coli; [14]) | zone of inhibition at 400000 µg/mL (Escherichia coli; [14]) | zone of inhibition at 600000 µg/mL (Escherichia coli; [14]) | Inhibition diameter (Escherichia coli; [8]) | other results
1 | CC[C@H](C)[C@H](N)C(=O)OC(C)C.O=C(O)c1ccccc1O [[L-IleOiPr][SA], L-isoleucine isopropyl ester salicylate] | 10.8 ± 0.5 mm | 12.4 ± 0.4 mm | - | - | 7.3 ± 0.4 mm | 10.5 ± 0.3 mm | - | - | - | 1.6 ± 0.034 | 11.793 ± 0.422 gAS dm^−3 | 8.581 ± 0.015 gAS dm^−3 | 19.281 ± 0.015 mg/mL | 13.149 ± 0.041 gAS dm^−3 | 29.55 ± 0.041 mg/mL | 26.5 ± 0.422 mg/mL | 6.2 ± 0.1 mm | 7.3 ± 0.3 mm | 13.7 ± 0.7 mm | - | Inhibition diameter (Micrococcus Luteus; [10]): -; Inhibition diameter (Micrococcus Luteus; [11]): -; Inhibition diameter (Micrococcus Luteus; [12]): -; Inhibition diameter [1, 11]: -; Inhibition diameter [1, 12]: -; Inhibition diameter (Escherichia coli; [9]): -; Inhibition diameter (Escherichia coli; [10]): -; Solubility in Chloroform (39.1) [4]: ○ (soluble >100 mg cm^−3); Solubility in DMSO (45.1) [4]: ○ (soluble >100 mg cm^−3); Solubility in Dichloromethane (40.7) [4]: ○ (soluble >100 mg cm^−3); Solubility in Diethyl Ether (34.5) [4]: ○ (soluble >100 mg cm^−3); Solubility in Ethanol (59.1) [4]: ○ (soluble >100 mg cm^−3); Solubility in Ethyl Acetate (38.1) [4]: ○ (soluble >100 mg cm^−3); Solubility in Hexane (31.0) [4]: ● (insoluble <33 mg cm^−3); Solubility in Toluene (33.9) [4]: ○ (soluble >100 mg cm^−3); Log(KS) formation constant [5]: 7.25; TDTGmax, maximum decomposition temperature [6]: 202.4 °C; TTGonset, the onset of the thermal degradation [6]: 144.2 °C
2 | CSCC[C@H](N)C(=O)OC(C)C.O=C(O)c1ccccc1O [[L-MetOiPr][SA], L-methionine isopropyl ester salicylate] | 8.1 ± 0.9 mm | 10.5 ± 1 mm | - | - | 7.5 ± 0.2 mm | 9.2 ± 0.5 mm | - | - | - | 1.78 ± 0.035 | 6.749 ± 0.533 gAS dm^−3 | 4.437 ± 0.007 gAS dm^−3 | 10.55 ± 0.007 mg/mL | 7.586 ± 0.046 gAS dm^−3 | 18.04 ± 0.046 mg/mL | 16 ± 0.533 mg/mL | 14.4 ± 0.8 mm | 16.4 ± 0.3 mm | 18.8 ± 0.4 mm | - | zone of inhibition at 100000 µg/mL (Micrococcus Luteus; Micrococcus luteus, 24 h, solution transferred to disc 100 mg cm^−3, read-out: Inhibition diameter): 6.1 ± 0.1 mm; zone of inhibition at 200000 µg/mL (Micrococcus Luteus; Micrococcus luteus, 24 h, solution transferred to disc 200 mg cm^−3, read-out: Inhibition diameter): 6.3 ± 0.1 mm; zone of inhibition at 400000 µg/mL (Micrococcus Luteus; Micrococcus luteus, 24 h, solution transferred to disc 400 mg cm^−3, read-out: Inhibition diameter): 7.3 ± 0.4 mm; zone of inhibition at 200000 µg/mL ([1]; Staphylococcus epidermidis, 24 h, solution transferred to disc 200 mg cm^−3, read-out: Inhibition diameter): 6.6 ± 0.2 mm; zone of inhibition at 400000 µg/mL ([1]; Staphylococcus epidermidis, 24 h, solution transferred to disc 400 mg cm^−3, read-out: Inhibition diameter): 7.1 ± 0.1 mm; zone of inhibition at 100000 µg/mL (Escherichia coli; Escherichia coli, 24 h, solution transferred to disc 100 mg cm^−3, read-out: Inhibition diameter): 7.8 ± 0.2 mm; Inhibition diameter (Escherichia coli; [9]): -; Solubility in Chloroform (39.1) [4]: ○ (soluble >100 mg cm^−3); Solubility in DMSO (45.1) [4]: ○ (soluble >100 mg cm^−3); Solubility in Dichloromethane (40.7) [4]: ○ (soluble >100 mg cm^−3); Solubility in Diethyl Ether (34.5) [4]: ○ (soluble >100 mg cm^−3); Solubility in Ethanol (59.1) [4]: ○ (soluble >100 mg cm^−3); Solubility in Ethyl Acetate (38.1) [4]: ○ (soluble >100 mg cm^−3); Solubility in Hexane (31.0) [4]: ● (insoluble <33 mg cm^−3); Solubility in Toluene (33.9) [4]: ○ (soluble >100 mg cm^−3); Log(KS) formation constant [5]: 7.00; TDTGmax, maximum decomposition temperature [6]: 205.0 °C; TTGonset, the onset of the thermal degradation [6]: 161.1 °C
